Results on 15 compounds are retold here after ChEMBL document CHEMBL3108733, “Design, synthesis, and evaluation of hydroxamic acid derivatives as promising agents for the management of Chagas disease” (J Med Chem, 2014).

Data set [1] is described as follows: Inhibition of Trypanosoma cruzi recombinant carbonic anhydrase-mediated CO2 hydration by stopped-flow assay.
For data set [2], the system named is Trypanosoma cruzi. Nature of the data set: Antitrypanosomal activity against Trypanosoma cruzi Y epimastigotes assessed as growth inhibition at 32 uM after 5 days by Neubauer chamber counting analysis relative to control. The data set is classed as functional.
Data set [3] concerns Trypanosoma cruzi. Put plainly: Antitrypanosomal activity against Trypanosoma cruzi Y infected in human THP1 cells assessed as decrease in intracellular amastigotes at 2 uM after 48 hrs by Giemsa staining-based Neubauer chamber counting analysis. The data set is classed as functional, organism-based. As to conditions: THP-1.
Data set [4] has as its system Trypanosoma cruzi. As to conditions: Y, 16 uM.
Description: Inhibition of MMP9 in Trypanosoma cruzi Y epimastigotes assessed as effect on protein level at 16 uM after 5 days by Western blotting analysis
For data set [5], the system named is Trypanosoma cruzi. Put plainly: Antitrypanosomal activity against Trypanosoma cruzi Y infected in human THP1 cells assessed as reduction of parasite burden after 48 hrs by Giemsa staining-based Neubauer chamber counting analysis. As to conditions: THP-1, 48 h.
The subject of data set [6] is Trypanosoma cruzi. Nature of the data set: Trypanocidal activity against Trypanosoma cruzi Y infected in BALB/c mouse assessed as reduction in parasitemia at 25 mg/kg treated from day 2 to day 9 post-infection measured on day 6 post-infection. The data set is classed as functional, organism-based. Details: dose 25 mg/kg.
Data set [7] has as its system Trypanosoma cruzi. Nature of the data set: Trypanocidal activity against Trypanosoma cruzi Y infected in BALB/c mouse assessed as reduction in parasitemia at 25 mg/kg treated from day 2 to day 9 post-infection measured on day 9 post-infection. The data set is classed as functional, organism-based. More on the design: dose 25 mg/kg.
Data set [8] relates to Trypanosoma cruzi. Nature of the data set: Antitrypanosomal activity against Trypanosoma cruzi Dm28c trypomastigotes after 48 hrs by Neubauer chamber counting analysis.
For data set [9], the system named is Trypanosoma cruzi. Put plainly: Antitrypanosomal activity against Trypanosoma cruzi Y infected in human THP1 cells assessed as reduction of parasite burden at 32 uM after 48 hrs by Giemsa staining-based Neubauer chamber counting analysis relative to control. The format is functional, THP-1. More on the design: scale not given: the % may be the effect or the level left.

The subject of data set [10] is Trypanosoma cruzi. Nature of the data set: Antitrypanosomal activity against Trypanosoma cruzi Dm28c epimastigotes after 5 days by resazurin dye-based assay. As to conditions: 120 h. For orientation: Resazurin is reduced to fluorescent resorufin, in cell work by metabolically active cells.
Data set [11] concerns Trypanosoma cruzi. Nature of the data set: Antitrypanosomal activity against Trypanosoma cruzi Y infected in BALB/c mouse peritoneal macrophages assessed as reduction of parasite burden at 32 uM after 48 hrs by Giemsa staining-based Neubauer chamber counting analysis relative to control. More on the design: scale not given: the % may be the effect or the level left. The data set is classed as functional.

Data set [12] can be described thus: Cytotoxicity against BALB/c mouse peritoneal macrophages after 24 hrs by MTT/LDH assay. The data set is classed as cell-based, Peritoneal macrophage cell.
Data set [13] concerns Trypanosoma cruzi. Put plainly: Antitrypanosomal activity against Trypanosoma cruzi Dm28c trypomastigotes at 16 uM after 48 hrs by Neubauer chamber counting analysis relative to control. The data set is classed as functional.
In data set [14] the test system is Trypanosoma cruzi. Nature of the data set: Antitrypanosomal activity against Trypanosoma cruzi Y infected in BALB/c mouse peritoneal macrophages assessed as reduction of parasite burden after 48 hrs by Giemsa staining-based Neubauer chamber counting analysis.
A short description of data set [15]: Cytotoxicity against BALB/c mouse peritoneal macrophages after 48 hrs by MTT/LDH assay. The data set is classed as cell-based, Peritoneal macrophage cell.
Data set [16] relates to Trypanosoma cruzi. Put plainly: Trypanocidal activity against Trypanosoma cruzi Y infected in BALB/c mouse assessed as mouse survival at 25 mg/kg treated from day 2 to day 9 post-infection. The data set is classed as functional.
The subject of data set [17] is Trypanosoma cruzi. Put plainly: Antitrypanosomal activity against Trypanosoma cruzi Y trypomastigotes at 16 uM after 48 hrs by Neubauer chamber counting analysis relative to control. The format is functional.
In data set [18] the test system is Trypanosoma cruzi. Put plainly: Antitrypanosomal activity against Trypanosoma cruzi Y infected in BALB/c mouse peritoneal macrophages assessed as decrease in trypomastigotes release at 16 uM after 120 hrs by Giemsa staining-based Neubauer chamber counting analysis. The format is functional, organism-based.
For data set [19], the system named is Trypanosoma cruzi. Nature of the data set: Antitrypanosomal activity against Trypanosoma cruzi Y trypomastigotes after 48 hrs by Neubauer chamber counting analysis.
Data set [20] deals with Trypanosoma cruzi. As to conditions: Y, 32 to 64 uM.
Description: Inhibition of metallopeptidase in Trypanosoma cruzi Y epimastigotes at 32 to 64 uM after 12 hrs by gelatin zymography assay
Data set [21] concerns Trypanosoma cruzi. Nature of the data set: Antitrypanosomal activity against Trypanosoma cruzi Y epimastigotes after 5 days by resazurin dye-based assay. As to conditions: 120 h.
Data set [22] relates to Trypanosoma cruzi. As to conditions: Y, 32 to 64 uM. The source holds these as a separate data set.
Description: Inhibition of cysteine peptidase in Trypanosoma cruzi Y epimastigotes at 32 to 64 uM after 12 hrs by gelatin zymography assay
Data set [23] relates to Trypanosoma cruzi. Put plainly: Inhibition of MMP9 in Trypanosoma cruzi Y epimastigotes assessed as effect on protein level at 32 uM after 5 days by Western blotting analysis. For orientation: In western blotting, separated proteins are transferred to a membrane and probed.
Data set [24] relates to Trypanosoma cruzi. Put plainly: Trypanocidal activity against Trypanosoma cruzi Y infected in BALB/c mouse assessed as mouse survival at 100 mg/kg treated from day 2 to day 9 post-infection. The data set is classed as functional.
The next data set concerns the target Carbonic anhydrase 1 (Homo sapiens, UniProt P00915). Nature of the data set: Inhibition of human recombinant carbonic anhydrase-1-mediated CO2 hydration by stopped-flow assay.
A further data set addresses Carbonic anhydrase 2 (Homo sapiens, UniProt P00918). Put plainly: Inhibition of human recombinant carbonic anhydrase-2-mediated CO2 hydration by stopped-flow assay.

Calls of active or inactive are those of the source. The calls are words filed in the database; no cut-off is given here.

Chain of Carbonic anhydrase 1 (P00915 whole entry): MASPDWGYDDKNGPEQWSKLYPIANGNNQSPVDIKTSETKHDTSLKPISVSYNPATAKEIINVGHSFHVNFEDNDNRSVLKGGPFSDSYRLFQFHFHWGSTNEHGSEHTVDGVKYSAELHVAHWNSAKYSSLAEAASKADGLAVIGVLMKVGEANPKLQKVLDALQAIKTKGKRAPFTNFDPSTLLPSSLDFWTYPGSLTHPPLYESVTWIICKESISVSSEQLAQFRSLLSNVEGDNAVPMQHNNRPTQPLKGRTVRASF

Take `CC1(C(=O)NO)CC(c2ccccc2F)=NO1` (centres undefined): in data set [1], the Ki came to 141 nM.
As to `O=C(NO)C1CC(c2ccc(Cl)cc2)=NO1` (centres undefined), the Ki in data set [1] amounted to 189 nM. In the data set with Trypanosoma cruzi [2], the “growth inhibition (GI)” value was “Active”.
In the case of `CC1(C(=O)NO)CC(c2cccc(Br)c2)=NO1` (centres undefined), the inhibition constant (Ki) in [1] worked out at 615 nM. In the data set on Trypanosoma cruzi [2], the “growth inhibition (GI)” value is “inactive”.
Turning to `CCOc1ccccc1C1=NOC(C(=O)NO)C1` (centres undefined), the inhibitory constant (Ki) in data set [1] is 94.1 nM. The “growth inhibition (GI)” value in the data set on Trypanosoma cruzi [2] was “Active”.
Turning to `O=C(NO)C1CC(c2cccc(Cl)c2)=NO1` (centres undefined), the inhibition constant Ki in data set [1] is 267 nM. Moreover, the “growth inhibition (GI)” value with Trypanosoma cruzi [2] is “Active”.
Consider `O=C(NO)C1CC(c2ccc(OCc3ccccc3)cc2)=NO1` (centres undefined), for which the result in the data set on Trypanosoma cruzi [3], in the data set on Trypanosoma cruzi [7] and with Trypanosoma cruzi [18] was Active. Moreover, the inhibition entry with Trypanosoma cruzi [4], in the data set on Trypanosoma cruzi [20] and in the data set with Trypanosoma cruzi [22] was “Active” throughout. For the same compound, the half-inhibitory concentration (IC50) in the data set with Trypanosoma cruzi [5] is < 1000 nM; with Trypanosoma cruzi [8], 5900 nM; in the data set with Trypanosoma cruzi [10], 10400 nM; in the data set with Trypanosoma cruzi [14], 9100 nM; with Trypanosoma cruzi [19], 3500 nM; with Trypanosoma cruzi [21] it was 7000 nM. The outcome in the data set with Trypanosoma cruzi [6] was inactive. In addition, the Activity in the data set with Trypanosoma cruzi [9] is recorded as 100%; in the data set on Trypanosoma cruzi [11], 5%; with Trypanosoma cruzi [13], 100%; in the data set on Trypanosoma cruzi [17], 100%. This compound also returned a 50% cytotoxic concentration (CC50) at 24 h in data set [12] of 92000 nM. The cytotoxic concentration (CC50) at 48 h in [15] came out at 64000 nM. Moreover, the Survival with Trypanosoma cruzi [16] is 25 days. Besides, the inhibitory constant (Ki) in data set [1] turned out to be 39.8 nM. Moreover, the inhibition of growth at 32 µM with Trypanosoma cruzi [2] (120 h, read-out: GI) was found to be 100%.
In the case of `C[C@H]1c2cccc(O)c2C(=O)C2=C(O)[C@]3(O)C(=O)C(C(N)=O)=C(O)[C@@H](N(C)C)[C@@H]3[C@@H](O)[C@@H]21`, the inhibition result with Trypanosoma cruzi [23] is “inactive”.
For the compound `O=C(Cn1ccnc1[N+](=O)[O-])NCc1ccccc1` [BENZNIDAZOLE], in the data set with Trypanosoma cruzi [24], the Survival was 25 days. In addition, the “growth inhibition (GI)” value in the data set on Trypanosoma cruzi [2] was “Active”.
As for `CCOc1ccc(C2=NOC(C(=O)NO)C2)cc1` (centres undefined), in data set [1], the inhibition constant (Ki) turned out to be 71.3 nM. Besides, the “growth inhibition (GI)” value with Trypanosoma cruzi [2] was “Active”.
As for `CC1(C(=O)NO)CC(c2cccc(F)c2)=NO1` (centres undefined), in [1], the inhibitory constant (Ki) was 182 nM.
In the case of `O=C(NO)C1CC(c2ccccc2Cl)=NO1` (centres undefined), the inhibition constant Ki in data set [1] is 263 nM. Further, the “growth inhibition (GI)” value with Trypanosoma cruzi [2] was “Active”.
For `CC1(C(=O)NO)CC(c2cccc(Cl)c2)=NO1` (centres undefined), in that order: 365 nM and “inactive”.
With `O=C(NO)C1CC(c2ccccc2)=NO1` (centres undefined), in data set [1], the inhibition constant Ki is 428 nM. The “growth inhibition (GI)” value with Trypanosoma cruzi [2] is “inactive”.
As for `CCOc1ccc(C2=NOC(C(=O)NN)C2)cc1` (centres undefined), the inhibition constant Ki (at Carbonic anhydrase 1; on Carbonic anhydrase 2; in data set [1]) was > 100000 nM in each case.
With `CCOc1ccccc1C1=NOC(C(=O)NN)C1` (centres undefined), the inhibition constant (Ki) (on Carbonic anhydrase 1; on Carbonic anhydrase 2; in data set [1]) was > 100000 nM in each case.

A word on the Ki: it is the dissociation constant of the complex between target and ligand, obtained from inhibition or displacement. As usually defined, the IC50 is the concentration at which inhibition is half-maximal. By CC50 is commonly meant the concentration giving 50% cytotoxicity.
